Assay results published in patent US9611262B2, “Substituted 2-azabicycles and their use as orexin receptor modulators” (JANSSEN PHARMACEUTICA NV, priority 2014, dated 2017).

Biological target: human orexin 2 receptor (Homo sapiens (Human), UniProt O43614)
Test: Human orexin 2 receptor radioligand binding ([3H]-EMPA competition)
Settings: HEK293 stably expressing human orexin 2 receptor; 2 nM [3H]-EMPA; averages of 2-20 runs; read-out: hOX2 Ki
Method: The in vitro affinity of the compounds of the invention for the rat/human orexin 1 and human orexin 2 receptors was determined by competitive radioligand binding using [^3H](1-(5-(2-fluoro-phenyl)-2-methyl-thiazol-4-yl)-1-((S)-2-(5-phenyl-(1,3,4)oxadiazol-2-ylmethyl)-pyrrolidin-1-yl)-methanone) (Langmead et al., 2004) and [^3H]EMPA (n-ethyl-2[96-methoxy-pyridin-3-yl)-(toluene-2-sulfonyl)-amino]-N-pyridin-3-ylmethyl acetamide), respectively (Langmead et al., 2004, British Journal of Pharmacology 141:340-346; Malherbe et al., 2004, British Journal of Pharmacology 156:1326-41).
Data are analyzed using pc-Sandy macro and graphed on Graphpad Prism 5. For analysis, each concentration point is averaged from triplicate values and the averaged values are plotted on Graphpad Prism. The IC50 was determined by applying the following equation (GraphPad Prism 5.0, San Diego) for one site competition where X=log (concentration) and Y=specific binding. Top denotes the total [^3H]— (1-(5-(2-fluoro-phenyl)-2-methyl-thiazol-4-yl)-1-((S)-2-(5-phenyl-(1,3,4)oxadiazol-2-ylmethyl)-pyrrolidin-1-yl)-methanone) binding, bottom denotes the nonspecific [^3H]— (1-(5-(2-fluoro-phenyl)-2-methyl-thiazol-4-yl)-1-((S)-2-(5-phenyl-(1,3,4)oxadiazol-2-ylmethyl)-pyrrolidin-1-yl)-methanone) binding. Graphpad Prism calculates Ki value from IC50 and the pre-determined Kd values for [^3H]— (1-(5-(2-fluoro-phenyl)-2-methyl-thiazol-4-yl)-1-((S)-2-(5-phenyl-(1,3,4)oxadiazol-2-ylmethyl)-pyrrolidin-1-yl)-methanone) and [^3H]-EMPA. The Ki for each compound is then uploaded into 3DX. Each run comprises individual compounds in triplicate. The data in Table 1 and Table 2 represent averages from between 2-20 runs
Human Orexin 2 Receptor Radioligand Binding Studies
HEK293 stably expressing human orexin 2 receptor (Genebank accession number NM_001526) were grown to confluency in DMEM (Hyclone, cat # SH30022), 10% FBS, 1× Pen/Strep, 1× NaPyruvate, 10 mM HEPES, 600 μg/ml G418 media on 150 cm^2 tissue culture plates, washed with 5 mM EDTA in PBS (HyClone Dulbecco's Phosphate Buffered Saline 1× with Calcium and Magnesium, Cat # SH30264.01, hereafter referred to simply as PBS) and scraped into 50 ml tubes. After centrifugation (2K×G, 5 min at 4° C.), the supernatant was aspirated and the pellets frozen and stored at −80° C. Cells were resuspended in PBS in the presence of 1 tablet of protease inhibitor cocktail (Roche, Cat. #11836145001) per 50 mL. […] Compounds were solubilized in 100% DMSO (Acros Organics, Cat. #61042-1000) and tested over a range of 7 concentration (from 0.1 nM to 10 μM). The final concentration of DMSO in the reactions is equal to or less than 0.1%. Total and nonspecific binding was determined in the absence and presence of 10 μM almorexant. The total volume of each reaction is 200 μL (20 μL of diluted compounds, 80 μL of [^3H]-EMPA diluted in PBS and 100 μL of the cell suspension). Reactions were run for 60 min at room temperature and terminated by filtration through GF/C filter plates (PerkinElmer, Cat. #6005174) presoaked in 0.3% polyethylenimine using the cell harvester (PerkinElmer Filtermate). The plates were washed 3 times by aspirating 30 ml PBS through the plates. Plates were dried in 55° C. oven for 60 min, scintillation fluid was added, and the radioactivity was counted on a Topcount (Packard).

Chain of human orexin 2 receptor (O43614 whole entry): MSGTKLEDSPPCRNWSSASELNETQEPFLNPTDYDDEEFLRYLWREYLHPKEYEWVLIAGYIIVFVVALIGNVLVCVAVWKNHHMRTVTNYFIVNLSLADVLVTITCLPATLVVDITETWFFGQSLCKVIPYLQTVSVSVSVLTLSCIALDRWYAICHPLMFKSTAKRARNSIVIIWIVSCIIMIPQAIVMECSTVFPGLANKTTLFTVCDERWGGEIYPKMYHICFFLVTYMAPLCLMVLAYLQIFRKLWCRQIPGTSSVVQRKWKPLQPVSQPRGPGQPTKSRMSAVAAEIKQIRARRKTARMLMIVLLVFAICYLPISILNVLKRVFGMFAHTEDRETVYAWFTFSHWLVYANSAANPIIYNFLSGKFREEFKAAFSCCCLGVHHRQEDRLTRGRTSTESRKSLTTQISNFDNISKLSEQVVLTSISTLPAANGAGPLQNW

C[C@@H]1[C@H]2C[C@@H](Oc3cnc4cc(F)c(F)cc4n3)[C@H](C2)N1C(=O)c1ccccc1-n1nccn1 (relative stereo) [Example 191, (2-(2H-1,2,3-triazol-2-yl)phenyl)((1S*,3R*,4R*,6R*)-6-((6,7-difluoroquinoxalin-2-yl)oxy)-3-methyl-2-azabicyclo[2.2.1]heptan-2-yl)methanone]
Ki: 72 nM

CC1C2CC(Oc3ccc(C(F)(F)F)cn3)C(C2)N1C(=O)c1cc(F)ccc1-c1ncccn1 (single isomer, unassigned) [Example 18A, (5-fluoro-2-(pyrimidin-2-yl)phenyl)((1R*,3S*,4S*,6S*)-3-methyl-6-((5-(trifluoromethyl)pyridin-2-yl)oxy)-2-azabicyclo[2.2.1]heptan-2-yl)methanone]
Ki: > 10000 nM

Cc1cnc(C(=O)N2C(C)C3CC(Oc4ccc(C(F)(F)F)cn4)C2C3)c(-n2nccn2)c1 (racemic) [Example 11, (R/S)-(5-methyl-3-(2H-1,2,3-triazol-2-yl)pyridin-2-yl)(3-methyl-6-((5-(trifluoromethyl)pyridin-2-yl)oxy)-2-azabicyclo[2.2.1]heptan-2-yl)methanone]
Ki: 2100 nM

Cc1ccc(-n2nccn2)c(C(=O)N2[C@H](C)[C@H]3C[C@@H](Oc4cnc5ccccc5c4)[C@@H]2C3)n1 (relative stereo) [Example 185, (6-methyl-3-(2H-1,2,3-triazol-2-yl)pyridin-2-yl)((1S*,3R*,4R*,6R*)-3-methyl-6-(quinolin-3-yloxy)-2-azabicyclo[2.2.1]heptan-2-yl)methanone]
Ki: 61 nM

Cc1ccc(-n2nccn2)c(C(=O)N2C(C)C3CC(Nc4cnc(C(F)(F)F)cn4)C2C3)n1 (single isomer, unassigned) [Example 69A, (6-methyl-3-(2H-1,2,3-triazol-2-yl)pyridin-2-yl)((1R*,3S*,4R*,6S*)-3-methyl-6-((5-(trifluoromethyl)pyrazin-2-yl)amino)-2-azabicyclo[2.2.1]heptan-2-yl)methanone]
Ki: > 10000 nM

Cc1ccc(-n2nccn2)c(C(=O)N2C(C)C3CC(Nc4cnc(C(F)(F)F)cn4)C2C3)n1 (single isomer, unassigned) [Example 69B, (6-methyl-3-(2H-1,2,3-triazol-2-yl)pyridin-2-yl)((1S*,3R*,4S*,6R*)-3-methyl-6-((5-(trifluoromethyl)pyrazin-2-yl)amino)-2-azabicyclo[2.2.1]heptan-2-yl)methanone]
Ki: 236 nM

Cc1cnc(C(=O)N2[C@H](C)[C@H]3C[C@@H](Oc4cnc(C(F)(F)F)cn4)[C@@H]2C3)c(-n2nccn2)c1 (relative stereo) [Example 48, (5-methyl-3-(2H-1,2,3-triazol-2-yl)pyridin-2-yl)((1S*,3R*,4R*,6R*)-3-methyl-6-((5-(trifluoromethyl)pyrazin-2-yl)oxy)-2-azabicyclo[2.2.1]heptan-2-yl)methanone]
Ki: > 10000 nM

[2H]C([2H])([2H])[C@]1([2H])[C@H]2C[C@@H](Oc3ccc(C(F)(F)F)cn3)[C@H](C2)N1C(=O)c1ncc(C)cc1-n1nccn1 [Example 166, [(1R,2R,4S,5R)-2-deuterio-2-(trideuteriomethyl)-5-[[5-(trifluoromethyl)-2-pyridyl]oxy]-3-azabicyclo[2.2.1]heptan-3-yl]-[5-methyl-3-(triazol-2-yl)-2-pyridyl]methanone]
Ki: 1100 nM

Cc1ccc(-n2nccn2)c(C(=O)N2[C@H](C)[C@H]3C[C@@H](Oc4cnc5ccccc5n4)[C@@H]2C3)n1 (relative stereo) [Example 183, (6-methyl-3-(2H-1,2,3-triazol-2-yl)pyridin-2-yl)((1S*,3R*,4R*,6R*)-3-methyl-6-(quinoxalin-2-yloxy)-2-azabicyclo[2.2.1]heptan-2-yl)methanone]
Ki: 195 nM

CC1C2CC(Oc3ccc(C(F)(F)F)cn3)C(C2)N1C(=O)c1cccc(F)c1-c1ncc(F)cn1 (single isomer, unassigned) [Example 20A, (3-fluoro-2-(5-fluoropyrimidin-2-yl)phenyl)((1R*,3S*,4S*,6S*)-3-methyl-6-((5-(trifluoromethyl)pyridin-2-yl)oxy)-2-azabicyclo[2.2.1]heptan-2-yl)methanone]
Ki: > 10000 nM

Cc1ccc(-n2nccn2)c(C(=O)N2C(C)C3CC(Nc4cnc(C(F)(F)F)cn4)C2C3)n1 (single isomer, unassigned) [Example 6, (R/S)-(6-methyl-3-(2H-1,2,3-triazol-2-yl)pyridin-2-yl)(3-methyl-6-((5-(trifluoromethyl)pyrazin-2-yl)amino)-2-azabicyclo[2.2.1]heptan-2-yl)methanone]
Ki: 664 nM

C[C@@H]1[C@H]2C[C@@H](Nc3ccc(C(F)(F)F)cn3)[C@H](C2)N1C(=O)c1cccc(F)c1-n1nccn1 (relative stereo) [Example 65, (3-fluoro-2-(2H-1,2,3-triazol-2-yl)phenyl)((1S*,3R*,4S*,6R*)-3-methyl-6-((5-(trifluoromethyl)pyridin-2-yl)amino)-2-azabicyclo[2.2.1]heptan-2-yl)methanone]
Ki: 183 nM

CC1C2CC(Oc3ccc(C(F)(F)F)cn3)C(C2)N1C(=O)c1cc(F)ccc1-c1ncccn1 (single isomer, unassigned) [Example 18B, (5-fluoro-2-(pyrimidin-2-yl)phenyl)((1S*,3R*,4R*,6R*)-3-methyl-6-((5-(trifluoromethyl)pyridin-2-yl)oxy)-2-azabicyclo[2.2.1]heptan-2-yl)methanone]
Ki: 879 nM

C[C@@H]1[C@H]2C[C@@H](Nc3ccc(C(F)(F)F)cn3)[C@H](C2)N1C(=O)c1ncccc1-n1nccn1 (relative stereo) [Example 64, (3-(2H-1,2,3-triazol-2-yl)pyridin-2-yl)((1S*,3R*,4S*,6R*)-3-methyl-6-((5-(trifluoromethyl)pyridin-2-yl)amino)-2-azabicyclo[2.2.1]heptan-2-yl)methanone]
Ki: 324 nM

C[C@@H]1[C@H]2C[C@@H](Oc3cnc(C(F)(F)F)cn3)[C@H](C2)N1C(=O)c1ccc(F)cc1-n1nccn1 (relative stereo) [Example 53, (4-fluoro-2-(2H-1,2,3-triazol-2-yl)phenyl)((1S*,3R*,4R*,6R*)-3-methyl-6-((5-(trifluoromethyl)pyrazin-2-yl)oxy)-2-azabicyclo[2.2.1]heptan-2-yl)methanone]
Ki: 7600 nM

Cc1ccc(-n2nccn2)c(C(=O)N2C(CF)C3CC(Oc4ccc(C(F)(F)F)cn4)C2C3)n1 (racemic) [Example 70]
Ki: 2000 nM

Cc1cnc(C(=O)N2[C@H](C)[C@H]3C[C@@H](Nc4ccc(C(F)(F)F)cn4)[C@@H]2C3)c(-n2nccn2)c1 (relative stereo) [Example 66, (5-methyl-3-(2H-1,2,3-triazol-2-yl)pyridin-2-yl)((1S*,3R*,4S*,6R*)-3-methyl-6-((5-(trifluoromethyl)pyridin-2-yl)amino)-2-azabicyclo[2.2.1]heptan-2-yl)methanone]
Ki: 317 nM

CC(C)CC1C2CC(Oc3ccc(C(F)(F)F)cn3)C(C2)N1C(=O)c1cccc(F)c1-c1ncccn1 (racemic) [Example 211, (R/S)-(3-fluoro-2-pyrimidin-2-yl-phenyl)-[2-isobutyl-5-[[5-(trifluoromethyl)-2-pyridyl]oxy]-3-azabicyclo[2.2.1]heptan-3-yl]methanone]
Ki: 3300 nM

CC1C2CC(Nc3cnc(C(F)(F)F)cn3)C(C2)N1C(=O)c1ccccc1-n1nccn1 (single isomer, unassigned) [Example 68B, (2-(2H-1,2,3-triazol-2-yl)phenyl)((1S*,3R*,4S*,6R*)-3-methyl-6-((5-(trifluoromethyl)pyrazin-2-yl)amino)-2-azabicyclo[2.2.1]heptan-2-yl)methanone]
Ki: 259 nM
